In turn, `*Oc1ccc(C(=O)c2cccc(C(=O)c3ccc(*)c(C(C)C)c3)c2)cc1CC` (repeat unit) returned a glass transition temperature of 136.00 °C.

`*Oc1ccc(C(=O)c2cccc(C(=O)c3ccc(*)cc3)c2)cc1` (repeat unit) gave a glass transition temperature of 139.00 °C. The molecule `*c1ccc(N2C(=O)c3ccc(-c4ccc5c(c4)C(=O)N(*)C5=O)cc3C2=O)cc1` (repeat unit) gave a glass transition temperature of 341.00 °C.

As to `*c1ccc(N2C(=O)c3ccc(P(=O)(c4ccccc4)c4ccc5c(c4)C(=O)N(*)C5=O)cc3C2=O)cc1` (repeat unit), the glass transition temperature worked out at 366.00 °C. The same measure for `*c1ccc(OCCCCCCCCCCOc2ccc(N3C(=O)c4ccc(-c5ccc6c(c5)C(=O)N(*)C6=O)cc4C3=O)cc2)cc1` (repeat unit): 153.00 °C; for `*c1ccc(OCCCOc2ccc(N3C(=O)c4ccc(-c5cccc6c5C(=O)N(*)C6=O)cc4C3=O)cc2)cc1` (repeat unit): 237.50 °C.

In the case of `*c1ccc(Oc2cc3ccccc3cc2Oc2ccc(N3C(=O)c4ccc(S(=O)(=O)c5ccc6c(c5)C(=O)N(*)C6=O)cc4C3=O)cc2)cc1` (repeat unit), the glass transition temperature turned out to be 275.00 °C.

Consider `*c1ccc(Oc2ccc(C(=O)c3cccc(C(=O)c4ccc(Oc5ccc(N6C(=O)c7ccc(Oc8ccc9c(c8)C(=O)N(*)C9=O)cc7C6=O)cc5)cc4)c3)cc2)cc1` (repeat unit), for which the glass transition temperature came out at 208.00 °C.

The molecule `*c1ccc(Oc2ccc(C(c3ccc(Oc4ccc(N5C(=O)c6ccc(-c7ccc8c(c7)C(=O)N(*)C8=O)cc6C5=O)cc4C(F)(F)F)cc3)(C(F)(F)F)C(F)(F)F)cc2)c(C(F)(F)F)c1` (repeat unit) showed a glass transition temperature of 223.00 °C. Consider `*c1ccc(Oc2ccc(N3C(=O)c4ccc([Si](C)(C)c5ccc6c(c5)C(=O)N(*)C6=O)cc4C3=O)cc2)cc1` (repeat unit), for which the glass transition temperature worked out at 274.00 °C. On to `*c1ccc(Oc2ccc(Oc3ccc(N4C(=O)c5ccc(-c6cccc7c6C(=O)N(*)C7=O)cc5C4=O)cc3)cc2)cc1` (repeat unit), for which the glass transition temperature is 285.00 °C. The same measure for `*c1ccc(Oc2ccc(S(=O)(=O)c3ccc(Oc4ccc(N5C(=O)c6ccc(S(=O)(=O)c7ccc8c(c7)C(=O)N(*)C8=O)cc6C5=O)cc4)cc3)cc2)cc1` (repeat unit): 274.00 °C; for `*c1ccc(Oc2cccc(N3C(=O)c4ccc(-c5ccc6c(c5)C(=O)N(*)C6=O)cc4C3=O)c2)cc1` (repeat unit): 259.00 °C; for `*c1ccc(Oc2cccc(Oc3ccc(N4C(=O)c5ccc(-c6ccc7c(c6)C(=O)N(*)C7=O)cc5C4=O)cc3)c2)cc1` (repeat unit): 234.00 °C. `*c1ccc(Oc2ccccc2Oc2ccc(N3C(=O)c4ccc(-c5ccc6c(c5)C(=O)N(*)C6=O)cc4C3=O)cc2C(F)(F)F)c(C(F)(F)F)c1` (repeat unit) yielded a glass transition temperature of 249.00 °C. Turning to `*c1ccc(Sc2ccc(Sc3ccc(Sc4ccc(N5C(=O)c6ccc(-c7ccc8c(c7)C(=O)N(*)C8=O)cc6C5=O)cc4)cc3)cc2)cc1` (repeat unit), the glass transition temperature is 227.10 °C. For the molecule `*c1ccc2c(c1)C(=O)N(c1ccc(Cc3ccc(N4C(=O)c5ccc(C(F)(F)C(F)(F)C(*)(F)F)cc5C4=O)cc3)cc1)C2=O` (repeat unit), the glass transition temperature is 290.00 °C.

On to `*c1ccc2c(c1)C(=O)N(c1ccc(N3C(=O)c4ccc(-c5c(-c6ccccc6)c(-c6ccccc6)c(-c6ccc(Sc7ccc(-c8c(-c9ccccc9)c(-c9ccccc9)c(*)c(-c9ccccc9)c8-c8ccccc8)cc7)cc6)c(-c6ccccc6)c5-c5ccccc5)cc4C3=O)cc1)C2=O` (repeat unit), for which the glass transition temperature came out at 344.00 °C. `*c1ccc2c(c1)C(=O)N(c1ccc(NC(=O)C(F)(F)C(F)(F)C(F)(F)C(F)(F)C(=O)Nc3ccc(N4C(=O)c5ccc(C(*)(C(F)(F)F)C(F)(F)F)cc5C4=O)cc3)cc1)C2=O` (repeat unit) registered a glass transition temperature of 285.00 °C. The result for `*c1ccc2c(c1)C(=O)N(c1ccc(NC(=S)/N=C/c3ccc(Cl)c(N4C(=O)c5ccc(C(*)(C(F)(F)F)C(F)(F)F)cc5C4=O)c3)cc1)C2=O` (repeat unit) reads 272.00 °C; that for `*c1ccc2c(c1)C(=O)N(c1ccc(OCCCCCCCCCCOc3ccc(N4C(=O)c5ccc(C(*)(C(F)(F)F)C(F)(F)F)cc5C4=O)cc3)cc1)C2=O` (repeat unit), 143.00 °C; that for `*c1ccc2c(c1)C(=O)N(c1ccc(OCCCCCCOc3ccc(N4C(=O)c5ccc(C(*)(C(F)(F)F)C(F)(F)F)cc5C4=O)cc3)cc1)C2=O` (repeat unit), 167.00 °C. The molecule `*c1ccc2c(c1)C(=O)N(c1ccc(OCCCCOc3ccc(N4C(=O)c5ccc(C(*)(C(F)(F)F)C(F)(F)F)cc5C4=O)cc3)cc1)C2=O` (repeat unit) displayed a glass transition temperature of 169.00 °C. Take `*c1ccc2c(c1)C(=O)N(c1ccc(OCCOCCOCCOCCOc3ccc(N4C(=O)c5ccc(C(*)(C(F)(F)F)C(F)(F)F)cc5C4=O)cc3)cc1)C2=O` (repeat unit): the glass transition temperature turned out to be 140.00 °C. Take `*c1ccc2c(c1)C(=O)N(c1ccc(OCCOCCOCCOc3ccc(N4C(=O)c5ccc(C(*)(C(F)(F)F)C(F)(F)F)cc5C4=O)cc3)cc1)C2=O` (repeat unit): the glass transition temperature is 166.00 °C. The result for `*c1ccc2c(c1)C(=O)N(c1ccc(OCCOc3ccc(N4C(=O)c5ccc(C(*)(C(F)(F)F)C(F)(F)F)cc5C4=O)cc3)cc1)C2=O` (repeat unit) reads 254.00 °C; that for `*c1ccc2c(c1)C(=O)N(c1ccc(Oc3ccc(N4C(=O)c5ccc(-c6c(-c7ccccc7)c(-c7ccccc7)c(-c7ccc(Oc8ccc(-c9c(-c%10ccccc%10)c(-c%10ccccc%10)c(*)c(-c%10ccccc%10)c9-c9ccccc9)cc8)cc7)c(-c7ccccc7)c6-c6ccccc6)cc5C4=O)cc3)cc1)C2=O` (repeat unit), 329.00 °C. `*c1ccc2c(c1)C(=O)N(c1ccc(Oc3ccc(N4C(=O)c5ccc(-c6c(-c7ccccc7)c(-c7ccccc7)c(-c7ccc(Sc8ccc(-c9c(-c%10ccccc%10)c(-c%10ccccc%10)c(*)c(-c%10ccccc%10)c9-c9ccccc9)cc8)cc7)c(-c7ccccc7)c6-c6ccccc6)cc5C4=O)cc3)cc1)C2=O` (repeat unit): the glass transition temperature was determined as 322.00 °C. The same measure for `*c1ccc2c(c1)C(=O)N(c1ccc(Oc3ccc(N4C(=O)c5ccc(C(*)(C(F)(F)F)C(F)(F)F)cc5C4=O)cc3)c(O)c1)C2=O` (repeat unit): 292.00 °C; for `*c1ccc2c(c1)C(=O)N(c1ccc(Oc3ccc(N4C(=O)c5ccc(C(*)O[Si](C)(C)C)cc5C4=O)cc3)cc1)C2=O` (repeat unit): 210.00 °C. In turn, `*c1ccc2c(c1)C(=O)N(c1ccc(Oc3ccc(N4C(=O)c5ccc(C(F)(F)C(F)(F)C(F)(F)C(*)(F)F)cc5C4=O)cc3)cc1)C2=O` (repeat unit) gave a glass transition temperature of 212.00 °C. The result for `*c1ccc2c(c1)C(=O)N(c1ccc(Oc3ccc(N4C(=O)c5ccc(C(F)(F)C(F)(F)C(F)(F)C(F)(F)C(F)(F)C(*)(F)F)cc5C4=O)cc3)cc1)C2=O` (repeat unit) reads 185.00 °C; that for `*c1ccc2c(c1)C(=O)N(c1ccc(Oc3ccc(Oc4ccc(N5C(=O)c6ccc(C(*)(C(F)(F)F)C(F)(F)F)cc6C5=O)cc4)cc3)cc1)C2=O` (repeat unit), 279.00 °C; that for `*c1ccc2c(c1)C(=O)N(c1ccc(Oc3cccc(-c4cc(-c5ccccc5)cc(-c5cccc(Oc6ccc(N7C(=O)c8ccc(C(*)(C(F)(F)F)C(F)(F)F)cc8C7=O)cc6)c5)n4)c3)cc1)C2=O` (repeat unit), 180.00 °C. The result for `*c1ccc2c(c1)C(=O)N(c1ccc(Oc3ccccc3-c3ccccc3Oc3ccc(N4C(=O)c5ccc(C(*)(C(F)(F)F)C(F)(F)F)cc5C4=O)cc3)cc1)C2=O` (repeat unit) reads 78.00 °C; that for `*c1ccc2c(c1)C(=O)N(c1ccc(S(=O)(=O)c3ccc(S(=O)(=O)c4ccc(N5C(=O)c6ccc(C(*)(C(F)(F)F)C(F)(F)F)cc6C5=O)cc4)cc3)cc1)C2=O` (repeat unit), 331.00 °C. The same measure for `*c1ccc2c(c1)C(=O)N(c1ccc(Sc3ccc(Sc4ccc(N5C(=O)c6ccc(C(*)(C(F)(F)F)C(F)(F)F)cc6C5=O)cc4)cc3)cc1)C2=O` (repeat unit): 257.00 °C; for `*c1ccc2c(c1)C(=O)N(c1ccc(Sc3ccc(Sc4ccc(Sc5ccc(Sc6ccc(N7C(=O)c8ccc(C(*)(C(F)(F)F)C(F)(F)F)cc8C7=O)cc6)cc5)cc4)cc3)cc1)C2=O` (repeat unit): 216.00 °C; for `*c1ccc2c(c1)C(=O)N(c1ccc3c(c1)-c1cc(N4C(=O)c5ccc(C(*)(C(F)(F)F)C(F)(F)F)cc5C4=O)ccc1C3)C2=O` (repeat unit): 394.00 °C. Consider `*c1ccc2c(c1)C(=O)N(c1cccc(C(F)(F)C(F)(F)C(F)(F)C(F)(F)C(F)(F)c3cccc(N4C(=O)c5ccc(C(F)(F)C(F)(F)C(*)(F)F)cc5C4=O)c3)c1)C2=O` (repeat unit), for which the glass transition temperature was found to be 111.00 °C.

For the molecule `*c1ccc2c(c1)C(=O)N(c1cccc(C(F)(F)C(F)(F)C(F)(F)C(F)(F)C(F)(F)c3cccc(N4C(=O)c5ccc(C(F)(F)C(F)(F)C(F)(F)C(*)(F)F)cc5C4=O)c3)c1)C2=O` (repeat unit), the glass transition temperature came to 144.00 °C. The same measure for `*c1ccc2c(c1)C(=O)N(c1cccc(C(F)(F)C(F)(F)C(F)(F)c3cccc(N4C(=O)c5ccc(C(F)(F)C(F)(F)C(*)(F)F)cc5C4=O)c3)c1)C2=O` (repeat unit): 157.00 °C; for `*c1ccc2c(c1)C(=O)N(c1cccc(C(c3ccccc3)(c3cccc(N4C(=O)c5ccc(C(*)(C(F)(F)F)C(F)(F)F)cc5C4=O)c3)C(F)(F)F)c1)C2=O` (repeat unit): 305.00 °C; for `*c1ccc2c(c1)C(=O)N(c1cccc(Oc3ccc(N4C(=O)c5ccc(-c6c(-c7ccccc7)c(-c7ccccc7)c(-c7ccc(Sc8ccc(-c9c(-c%10ccccc%10)c(-c%10ccccc%10)c(*)c(-c%10ccccc%10)c9-c9ccccc9)cc8)cc7)c(-c7ccccc7)c6-c6ccccc6)cc5C4=O)cc3)c1)C2=O` (repeat unit): 300.00 °C.

Source of the values: the PolyMetriX glass transition set.
